Results as given in paper PMC7239840, “A traffic light enzyme: acetate binding reversibly switches chlorite dismutase from a red- to a green-colored heme protein” (Journal of Biological Inorganic Chemistry, 2020).

Legend:
[1] = molecular target: T1, chlorite dismutase (AoCld) (Azospira oryzae, UniProt E2DI02); assay: biochemical
[2] = molecular target: T2, chlorite dismutase (AoCld) R183A (Azospira oryzae, UniProt E2DI02, R217A); assay: ligand binding to the R183A mutant (Fig. S7)
T2 construct: recombinant, N-terminal His6 tag
T2 sequence (E2DI02 35-282, stated change not applied): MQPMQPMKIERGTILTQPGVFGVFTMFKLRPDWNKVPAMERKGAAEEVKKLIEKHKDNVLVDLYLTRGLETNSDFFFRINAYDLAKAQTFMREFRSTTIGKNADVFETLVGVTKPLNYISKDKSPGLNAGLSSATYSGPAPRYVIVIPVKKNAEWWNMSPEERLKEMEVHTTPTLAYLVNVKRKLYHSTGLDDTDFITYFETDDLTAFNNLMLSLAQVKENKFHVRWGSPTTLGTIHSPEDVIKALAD

[3] = molecular target: T1, chlorite dismutase (AoCld); assay: UV-visible equilibrium binding titration (Soret band), pH […]; EPR low-spin adduct; design: recombinant, N-terminal His6 tag
[4] = molecular target: T1, chlorite dismutase (AoCld); assay: UV-visible equilibrium binding titration (Soret band), pH […]; EPR with […] hyperfine splitting; design: recombinant, N-terminal His6 tag

T1 sequence (E2DI02 35-282): as the sequence (E2DI02 35-282, stated change not applied) above

SMILES: CC(=O)O [Ac, acetate]
- Kd [1]: 17.5 ± 0.5 mM

SMILES: c1c[nH]cn1 [Im, imidazole]
- ligand binding to the R183A mutant (Fig. S7) [2]: Mutagenesis of Arg183 to Ala results in the complete loss of affinity for fluoride and acetate, but not for imidazole
- Kd [3]: 0.0105 ± 0.0024 mM

SMILES: F [F^−, fluoride]
- Kd [4]: 15.6 ± 1.9 mM
